Measured values published in ChEMBL document CHEMBL1201862, “PubChem BioAssay data set” (2004).
Active and inactive are the calls of the source.

Tests used:
[1] = P. falciparum Dd2 growth inhibitors, dose response, SYBR Green, cherry-picked samples (AID 1159567); assay type: functional, cell-based
[2] = toxicity to human hepatoma HepG2 cells – cell-based, cherry-picked samples, cytotoxicity control, dose response (AID 1159577); assay type: functional
[3] = Potency on glucagon-like peptide 1 release, dose-response in NCI-H716 cell line, half maximal inhibitory concentration (AID 1117344); assay type: functional, cell-based
[4] = glucagon-like peptide-1 release potency in STC-1, concentration-response, half-maximal inhibitory concentration in the STC-1 line (AID 1117345); assay type: functional, cell-based
[5] = cells; assay type: functional, cell-based
[6] = target: Voltage-dependent T-type calcium channel subunit alpha-1H (Homo sapiens, UniProt O95180); assay type: functional;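 note: channel activity triggered by adding a high calcium stimulation buffer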
Sequence of Voltage-dependent T-type calcium channel subunit alpha-1H (O95180 whole entry): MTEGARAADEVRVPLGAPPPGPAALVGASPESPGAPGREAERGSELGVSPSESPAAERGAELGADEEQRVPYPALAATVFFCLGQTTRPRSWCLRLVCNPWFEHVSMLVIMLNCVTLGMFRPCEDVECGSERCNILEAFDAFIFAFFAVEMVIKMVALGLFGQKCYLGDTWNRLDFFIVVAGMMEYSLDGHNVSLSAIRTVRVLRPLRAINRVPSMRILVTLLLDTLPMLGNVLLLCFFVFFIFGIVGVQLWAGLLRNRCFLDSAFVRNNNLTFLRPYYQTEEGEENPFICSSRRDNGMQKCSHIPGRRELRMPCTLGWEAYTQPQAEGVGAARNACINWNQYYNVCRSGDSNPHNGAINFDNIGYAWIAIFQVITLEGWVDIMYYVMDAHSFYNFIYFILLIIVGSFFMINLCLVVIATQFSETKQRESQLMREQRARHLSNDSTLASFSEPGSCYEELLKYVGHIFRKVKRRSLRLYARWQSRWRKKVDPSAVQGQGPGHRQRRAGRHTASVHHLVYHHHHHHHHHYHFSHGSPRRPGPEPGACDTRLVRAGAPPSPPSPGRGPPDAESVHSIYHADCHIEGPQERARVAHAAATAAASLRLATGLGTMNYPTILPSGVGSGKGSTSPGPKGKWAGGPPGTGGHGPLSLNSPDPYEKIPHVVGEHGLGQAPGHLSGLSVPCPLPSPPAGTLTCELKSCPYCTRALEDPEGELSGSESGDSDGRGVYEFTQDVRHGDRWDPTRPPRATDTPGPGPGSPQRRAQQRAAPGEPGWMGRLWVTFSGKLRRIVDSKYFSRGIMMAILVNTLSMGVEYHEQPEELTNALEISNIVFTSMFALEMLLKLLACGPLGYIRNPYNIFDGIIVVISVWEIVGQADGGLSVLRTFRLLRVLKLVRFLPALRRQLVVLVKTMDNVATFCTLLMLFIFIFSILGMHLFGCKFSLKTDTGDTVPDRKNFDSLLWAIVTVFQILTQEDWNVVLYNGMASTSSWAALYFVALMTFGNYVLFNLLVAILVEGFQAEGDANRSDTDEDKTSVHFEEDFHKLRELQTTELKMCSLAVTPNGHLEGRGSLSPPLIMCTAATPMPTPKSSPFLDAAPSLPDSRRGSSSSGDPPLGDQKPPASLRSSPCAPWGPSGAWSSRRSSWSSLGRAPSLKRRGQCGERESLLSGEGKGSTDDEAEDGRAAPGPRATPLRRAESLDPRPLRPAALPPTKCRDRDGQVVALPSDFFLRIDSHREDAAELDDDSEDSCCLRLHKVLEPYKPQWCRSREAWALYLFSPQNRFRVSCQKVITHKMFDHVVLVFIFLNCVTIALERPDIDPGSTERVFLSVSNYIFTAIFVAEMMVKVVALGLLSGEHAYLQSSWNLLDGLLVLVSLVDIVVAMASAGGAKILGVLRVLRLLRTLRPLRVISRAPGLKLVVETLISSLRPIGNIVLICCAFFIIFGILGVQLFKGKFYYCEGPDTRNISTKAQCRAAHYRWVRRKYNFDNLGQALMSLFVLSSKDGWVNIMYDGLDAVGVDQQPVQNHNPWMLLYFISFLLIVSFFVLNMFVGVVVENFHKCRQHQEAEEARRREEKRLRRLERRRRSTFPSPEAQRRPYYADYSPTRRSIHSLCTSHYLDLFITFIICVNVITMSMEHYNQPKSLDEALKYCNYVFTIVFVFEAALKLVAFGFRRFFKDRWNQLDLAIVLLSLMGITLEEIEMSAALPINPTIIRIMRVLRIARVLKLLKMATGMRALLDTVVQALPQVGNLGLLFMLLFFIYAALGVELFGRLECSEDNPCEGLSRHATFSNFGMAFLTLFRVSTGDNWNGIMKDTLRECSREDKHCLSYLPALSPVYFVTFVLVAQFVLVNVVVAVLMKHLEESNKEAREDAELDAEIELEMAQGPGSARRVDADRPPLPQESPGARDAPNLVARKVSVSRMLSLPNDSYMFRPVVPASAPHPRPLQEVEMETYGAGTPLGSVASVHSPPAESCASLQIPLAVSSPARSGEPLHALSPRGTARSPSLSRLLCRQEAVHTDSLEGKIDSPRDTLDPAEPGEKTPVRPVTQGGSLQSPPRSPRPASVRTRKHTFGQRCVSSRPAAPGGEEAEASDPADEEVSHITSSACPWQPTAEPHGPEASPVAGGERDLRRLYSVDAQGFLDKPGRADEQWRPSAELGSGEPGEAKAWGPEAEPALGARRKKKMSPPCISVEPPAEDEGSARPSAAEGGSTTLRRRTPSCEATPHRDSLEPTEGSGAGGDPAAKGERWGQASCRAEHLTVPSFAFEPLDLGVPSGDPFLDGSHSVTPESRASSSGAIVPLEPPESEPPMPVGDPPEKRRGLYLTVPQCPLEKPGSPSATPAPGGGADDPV

[7] = cells; assay type: functional, cell-based; remark: listed apart in the source
[8] = blockers of bursicon-stimulated LGR2 cAMP reporter – cell-based, HEK293, CRE-luciferase reporter, cherry pick, set 2, dose response (AID 743343); assay type: functional;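 note: transfected cells were stimulated with diluted bursicon conditioned medium after compound addition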
[9] = target: T1, Acyl-homoserine lactone acylase PvdQ (Pseudomonas aeruginosa (strain LESB58), UniProt Q9I194); assay: PvdQ acylase enzyme activity blockers – biochemical, fluorescence, plate reader and imaging, cherry-picks, dose response (AID 493231)
T1 sequence (Q9I194 whole entry): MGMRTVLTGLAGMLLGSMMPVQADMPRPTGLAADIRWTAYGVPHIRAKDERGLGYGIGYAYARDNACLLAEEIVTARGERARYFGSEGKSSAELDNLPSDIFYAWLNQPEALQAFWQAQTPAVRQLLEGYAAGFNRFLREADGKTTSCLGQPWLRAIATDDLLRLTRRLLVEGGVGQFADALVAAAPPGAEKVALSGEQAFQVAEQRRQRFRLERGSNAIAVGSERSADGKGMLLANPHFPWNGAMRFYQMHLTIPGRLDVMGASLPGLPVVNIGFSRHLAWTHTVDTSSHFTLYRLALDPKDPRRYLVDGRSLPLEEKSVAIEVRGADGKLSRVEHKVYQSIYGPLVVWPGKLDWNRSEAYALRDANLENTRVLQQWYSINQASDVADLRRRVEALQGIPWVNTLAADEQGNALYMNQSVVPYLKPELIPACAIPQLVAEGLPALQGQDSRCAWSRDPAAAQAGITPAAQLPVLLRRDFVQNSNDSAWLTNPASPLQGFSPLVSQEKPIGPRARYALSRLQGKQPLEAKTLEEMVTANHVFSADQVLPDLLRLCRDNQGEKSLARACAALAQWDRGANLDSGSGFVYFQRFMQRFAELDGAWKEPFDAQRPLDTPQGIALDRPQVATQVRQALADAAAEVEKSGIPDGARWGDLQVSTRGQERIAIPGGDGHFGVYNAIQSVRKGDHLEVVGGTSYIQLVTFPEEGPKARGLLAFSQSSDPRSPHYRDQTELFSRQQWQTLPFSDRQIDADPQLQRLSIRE

[10] = blockade of melanocortin 4 receptor signaling – cell-based, plate reader, cherry pick, counter-screen for LGR2 antagonist project, dose response (AID 743444); assay type: functional;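 note: transfected HEK 293 cells stimulated with alpha-MSH peptide; potency of inhibitors of the alpha-MSH evoked signal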
[11] = A549 cell cytotoxicity, dose response, cytotoxicity control, plate reader, cherry-pick, antagonist series (AID 743412); assay type: functional, cell-based
[12] = target: T2, Protein skinhead-1 (Caenorhabditis elegans, UniProt P34707); assay type: functional
T2 sequence (P34707 whole entry): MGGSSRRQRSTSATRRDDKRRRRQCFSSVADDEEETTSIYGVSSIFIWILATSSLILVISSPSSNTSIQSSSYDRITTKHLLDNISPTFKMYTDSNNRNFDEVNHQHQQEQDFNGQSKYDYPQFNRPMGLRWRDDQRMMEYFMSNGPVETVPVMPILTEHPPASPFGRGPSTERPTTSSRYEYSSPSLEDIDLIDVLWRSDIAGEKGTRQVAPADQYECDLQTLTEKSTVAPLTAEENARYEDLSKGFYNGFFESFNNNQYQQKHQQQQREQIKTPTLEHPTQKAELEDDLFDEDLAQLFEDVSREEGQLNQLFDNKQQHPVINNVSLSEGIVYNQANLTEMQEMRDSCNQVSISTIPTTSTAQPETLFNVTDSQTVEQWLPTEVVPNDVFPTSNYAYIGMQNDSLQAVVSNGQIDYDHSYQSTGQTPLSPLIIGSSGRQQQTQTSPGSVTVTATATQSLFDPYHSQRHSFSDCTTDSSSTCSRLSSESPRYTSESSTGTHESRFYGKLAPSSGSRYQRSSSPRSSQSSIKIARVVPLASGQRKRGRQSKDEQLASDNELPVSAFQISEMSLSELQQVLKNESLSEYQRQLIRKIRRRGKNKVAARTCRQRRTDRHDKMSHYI

[13] = target: T3, Heat shock factor protein 1 (Mus musculus, UniProt P38532); assay: decrease of HSF1-responsive luciferase luminescence – cell-based, NIH3T3, dose retest, confirmation (AID 2382); assay type: functional;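 note: NIH3T3 fibroblasts with HSF1-driven luciferase reporter stressed by proteasome inhibitor MG132; luminescence from HSF1-driven luciferase expression after 8 hours of MG132 stress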
T3 sequence (P38532 whole entry): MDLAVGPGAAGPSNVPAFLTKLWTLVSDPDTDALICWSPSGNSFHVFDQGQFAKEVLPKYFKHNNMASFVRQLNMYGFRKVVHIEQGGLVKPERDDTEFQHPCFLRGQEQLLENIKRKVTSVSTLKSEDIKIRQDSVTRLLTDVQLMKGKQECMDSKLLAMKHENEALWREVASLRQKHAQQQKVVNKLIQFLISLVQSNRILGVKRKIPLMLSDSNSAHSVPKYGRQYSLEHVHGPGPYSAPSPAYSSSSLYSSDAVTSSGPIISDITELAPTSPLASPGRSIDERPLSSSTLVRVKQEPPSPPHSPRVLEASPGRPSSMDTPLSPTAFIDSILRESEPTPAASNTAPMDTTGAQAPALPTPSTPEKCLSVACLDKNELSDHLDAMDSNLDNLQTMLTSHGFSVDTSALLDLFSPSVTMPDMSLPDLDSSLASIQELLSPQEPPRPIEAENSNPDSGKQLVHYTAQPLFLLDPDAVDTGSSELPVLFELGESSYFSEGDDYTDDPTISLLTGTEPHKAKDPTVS

[14] = viability loss in human Jurkat cells – cell-based, luminescence, cytotoxicity control for P. falciparum gametocyte viability project, dose response (AID 1117277); assay type: functional;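 note: potency reflects loss of cellular ATP meaning fewer viable cells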
[15] = viability inhibitors of stage V gametocytes – luminescence, dose response (AID 1117278); assay type: functional, cell-based;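 note: gametocytes exposed to compound for 24 hours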
[16] = viability loss in THP-1 monocytes – THP-1 cells, cytotoxicity control for Vif-APOBEC3G degradation inhibitor project, dose response (AID 1117359); assay type: functional; conditions: THP-1
[17] = HIV-1 AD8 envelope cell-cell fusion blockers – cherry-pick, dose response (AID 652062); assay type: functional, cell-based;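 note: luciferase signal from cell-cell fusion driven by HIV-1 clade B AD8 Env; potency is for inhibitors of fusion seen as a drop in luminescence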
[18] = blockers of HIV-1 ZM109 envelope-driven cell-cell fusion – HeLa effector, CEM target cells, luciferase, cherry-pick, dose response (AID 652058); assay type: functional, cell-based;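 note: luciferase signal from HIV-1 Env mediated cell-cell fusion of effector and target cells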
[19] = blockers of HIV-1 envelope-mediated cell-cell fusion – cherry-pick, dose response (AID 652057); assay type: functional, cell-based
[20] = off-target signal loss in HeLa-CEM21 co-culture – HeLa F-luc CTL cells, cherry-picked, counter-screen for HIV-1 Env fusion inhibitor project, dose response (AID 652040); assay type: functional, cell-based;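 note: potency for signal decrease marking cytotoxic or nonspecific inhibition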
[21] = target: T4, Estrogen receptor (Homo sapiens, UniProt P03372);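 note: potency for inhibiting coactivator peptide recruitment to the receptor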
T4 sequence (P03372 whole entry): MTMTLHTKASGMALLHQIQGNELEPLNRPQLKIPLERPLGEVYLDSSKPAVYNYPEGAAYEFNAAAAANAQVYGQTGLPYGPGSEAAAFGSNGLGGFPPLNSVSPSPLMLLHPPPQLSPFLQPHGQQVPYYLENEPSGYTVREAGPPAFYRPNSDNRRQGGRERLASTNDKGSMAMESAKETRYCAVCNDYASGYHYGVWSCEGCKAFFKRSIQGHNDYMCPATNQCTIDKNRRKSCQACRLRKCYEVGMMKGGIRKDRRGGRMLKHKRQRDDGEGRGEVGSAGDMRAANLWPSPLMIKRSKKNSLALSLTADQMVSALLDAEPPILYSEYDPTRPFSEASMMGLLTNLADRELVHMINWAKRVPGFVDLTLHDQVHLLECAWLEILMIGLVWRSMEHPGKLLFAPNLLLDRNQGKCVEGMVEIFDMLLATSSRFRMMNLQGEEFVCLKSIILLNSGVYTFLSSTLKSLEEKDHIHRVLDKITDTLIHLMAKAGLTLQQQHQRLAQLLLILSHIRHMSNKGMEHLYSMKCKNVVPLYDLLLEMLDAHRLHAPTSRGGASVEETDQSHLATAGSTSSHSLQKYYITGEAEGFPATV

[22] = system: BJ; assay: cells; assay type: functional, cell-based; conditions: Homo sapiens
[23] = DRD fibroblast viability loss – cell-based, non-viral oncogenic, luminescence, dose response (AID 1934); assay type: functional; conditions: Homo sapiens
[24] = system: BJ; assay: BJ-TERT fibroblast viability loss – cell-based, RAS-independent, luminescence, dose response (AID 1933); assay type: functional; conditions: Homo sapiens
[25] = target: T5, Luciferin 4-monooxygenase (Photinus pyralis, UniProt P08659); assay: Counter Screen for Luciferase-based Assay Positives. [Related pubchem assays: 620, 618, 411 ]
T5 sequence (P08659 whole entry): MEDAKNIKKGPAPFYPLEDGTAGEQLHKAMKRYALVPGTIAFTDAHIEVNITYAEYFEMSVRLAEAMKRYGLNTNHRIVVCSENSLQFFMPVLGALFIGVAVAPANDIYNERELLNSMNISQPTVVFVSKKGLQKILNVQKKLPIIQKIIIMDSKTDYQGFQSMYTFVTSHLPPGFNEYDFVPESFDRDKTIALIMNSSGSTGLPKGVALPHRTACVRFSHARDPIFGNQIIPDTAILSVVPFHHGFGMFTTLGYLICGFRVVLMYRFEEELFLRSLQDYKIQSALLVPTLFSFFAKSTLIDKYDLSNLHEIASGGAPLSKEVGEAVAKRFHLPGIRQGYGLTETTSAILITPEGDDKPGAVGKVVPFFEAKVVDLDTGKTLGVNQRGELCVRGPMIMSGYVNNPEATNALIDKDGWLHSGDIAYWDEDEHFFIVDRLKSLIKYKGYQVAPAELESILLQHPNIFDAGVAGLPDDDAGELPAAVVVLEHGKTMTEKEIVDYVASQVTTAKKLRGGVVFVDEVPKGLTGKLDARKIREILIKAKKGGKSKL

[26] = target: T5, Luciferin 4-monooxygenase; assay: inhibition of purified Photinus pyralis luciferase – biochemical, luminescence, dose response (AID 1891)
[27] = system: HT-1080; assay: HT1080 cell viability loss – fluorescence readout (AID 620); assay type: functional, cell-based; conditions: Homo sapiens
[28] = Luminescence Cell-Based Dose Confirmation HTS to Identify Inhibitors of Platelet Dense Granule Release. [Related pubchem assays: 1663 (Primary HTS), 1678 (Summary of Project)]; assay type: functional
[29] = system: BJ; assay: BJ-TERT-LT-ST fibroblast viability loss – cell-based, RAS-independent, luminescence, dose response (AID 1935); assay type: functional; conditions: Homo sapiens;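 note: BJ fibroblasts immortalized with TERT plus LT and ST oncogenes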

## COc1ccc2c3c([nH]c2c1)[C@H](CO)N(Cc1ccc(Cl)cc1)CC31CN(Cc2nccs2)C1
[1]
  AC50: 4.85 µM (active)
[2]
  AC50: 31.9 µM (active)

## CCCCCCCCCCCCOCCOCCOCCOCCOCCOCCOCCOCCOCCO
[3]
  IC50: > 40 µM (inactive)
[4]
  IC50: 30.4 µM (inactive)

## Cc1sc(NC(=O)c2ccco2)c(CN2CCC(C)CC2)c1C
[5]
  EC50: > 350 µM (not active)
[6]
  EC50: 7.78 µM (active)
[7]
  EC50: > 350 µM (not active)

## CCOc1ccc(-c2cnc3ccccc3n2)cc1
[8]
  AC50: 1.77 µM (active)
[9]
  AC50: 97.4 µM (active)
[10]
  AC50: 1.8 µM (active)
[11]
  AC50: 30.8 µM (active)
[12]
  IC50: > 100 µM (inactive)
[13]
  EC50: 10 µM (active)

## CCCC(C)NC(=O)c1ccc2[nH]c3c(c2c1)CC(C)CC3 (configuration not stated)
[6]
  EC50: 60.1 µM (active)

## COc1ccc(C(=O)NCC(=O)N2CCc3ccccc3C2)cc1
[14]
  IC50: > 83.3 µM (inactive)
[15]
  IC50: > 109 µM (inactive)

## O=C(NNC(=O)c1ccccc1O)c1cc2ccccc2o1
[16]
  CC50: 19.2 µM (active)

## Cc1ccc(C(C(=O)NC(C)(C)C)N(Cc2cccs2)C(=O)c2csnn2)cc1 (configuration not stated)
[17]
  AC50: 1.67 µM (active)
[18]
  AC50: 17.5 µM (active)
[19]
  AC50: 10.2 µM (active)
[20]
  AC50: 22.6 µM (active)
[21]
  IC50: > 50 µM (not active)

## Nc1ccc(Cl)cc1C(=O)c1ccccc1F
[3]
  IC50: > 40 µM (inactive)
[4]
  IC50: > 40 µM (inactive)

## O=C(Nc1ccccn1)c1cc2ccccc2o1
[22]
  EC50: 16.1 µM (active)
[23]
  EC50: 11.2 µM (active)
[24]
  EC50: 11.2 µM (active)
[25]
  EC50: 0.22 µM (active)
[26]
  EC50: 3.03 µM (active)
[27]
  EC50: > 50 µM (not active)
[28]
  EC50: 3.9 µM (active)
[29]
  EC50: > 150 µM (inconclusive)
